In publication PMC9090415, “Discovery of small molecule inhibitors of Plasmodium falciparum apicoplast DNA polymerase” (Journal of Enzyme Inhibition and Medicinal Chemistry, 2022):

Molecular target: P. falciparum apicoplast DNA polymerase (Pf-apPOL) (Plasmodium falciparum, UniProt Q8ILY1)
Experiment: Fluorescence-based high-throughput DNA polymerase assay (molecular beacon), primary screen and dose-response
Type: biochemical
Details: for DNA Pol: 90 min, 10 µM; for % inhibition apPOL 180' 2.5 / % inhibition apPOL 180' 5 / % inhibition apPOL 180' 10 / % inhibition apPOL 180' 20 / % inhibition apPOL 180' 40 / % inhibition apPOL 180' 80: read at 180'
In short: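 Single-point screening used 10 µM compound with 20 nM polymerase, 20 nM hairpin substrate and 6 µM dNTPs for 90 min at 25 °C. Confirmatory titrations (2.5–80 µM) followed fluorescence at three times, and IC50 was derived from a fit including a cooperativity term n.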

Sequence of P. falciparum apicoplast DNA polymerase (Pf-apPOL) (Q8ILY1 entry or part of it): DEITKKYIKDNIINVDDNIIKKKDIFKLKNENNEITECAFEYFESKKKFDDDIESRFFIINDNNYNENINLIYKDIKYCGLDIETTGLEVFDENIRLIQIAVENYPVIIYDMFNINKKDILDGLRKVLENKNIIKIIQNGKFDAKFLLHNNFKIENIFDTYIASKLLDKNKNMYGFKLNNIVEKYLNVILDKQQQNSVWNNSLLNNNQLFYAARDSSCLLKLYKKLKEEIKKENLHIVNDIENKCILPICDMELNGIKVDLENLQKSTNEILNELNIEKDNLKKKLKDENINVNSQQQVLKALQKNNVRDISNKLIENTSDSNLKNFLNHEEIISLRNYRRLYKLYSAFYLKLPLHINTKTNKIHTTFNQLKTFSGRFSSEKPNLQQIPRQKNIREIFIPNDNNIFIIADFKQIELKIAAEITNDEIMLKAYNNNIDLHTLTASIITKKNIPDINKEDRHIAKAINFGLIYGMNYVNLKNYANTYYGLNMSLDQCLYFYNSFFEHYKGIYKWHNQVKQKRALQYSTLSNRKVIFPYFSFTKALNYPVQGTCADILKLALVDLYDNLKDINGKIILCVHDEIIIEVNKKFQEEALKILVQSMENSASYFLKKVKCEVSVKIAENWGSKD

O=C(CCc1csc(NC(=O)Nc2ccccc2)n1)Nc1nc2ccccc2s1 [KU0177354]
DNA Pol (186 hits, DNA Pol (screen value), unit not given): 40 | DNA Pol ('DNA Pol' (screen value), unit not given): 40 | % inhibition Apo pol 10' 2.5 (DRC-1, read at 10', concentration 2.5): 5.576% | % inhibition Apo pol 10' 5 (DRC-1, read at 10', concentration 5): 8.503% | % inhibition Apo pol 10' 10 (DRC-1, read at 10', concentration 10): 43.0217% | % inhibition Apo pol 10' 20 (DRC-1, read at 10', concentration 20): 76.9078% | % inhibition Apo pol 10' 40 (DRC-1, read at 10', concentration 40): 79.3304% | % inhibition Apo pol 10' 80 (DRC-1, read at 10', concentration 80): 82.5837% | % inhibition Apol 90' 2.5 (DRC-1, read at 90', concentration 2.5): -1.376% | % inhibition Apol 90' 5 (DRC-1, read at 90', concentration 5): -0.284% | % inhibition Apol 90' 10 (DRC-1, read at 90', concentration 10): 25.6988% | % inhibition Apol 90' 20 (DRC-1, read at 90', concentration 20): 59.1025% | % inhibition Apol 90' 40 (DRC-1, read at 90', concentration 40): 63.1922% | % inhibition Apol 90' 80 (DRC-1, read at 90', concentration 80): 69.3927% | % inhibition apPOL 180' 2.5 (DRC-1, concentration 2.5): -6.865% | % inhibition apPOL 180' 5 (DRC-1, concentration 5): -6.2% | % inhibition apPOL 180' 10 (DRC-1, concentration 10): 11.7395% | % inhibition apPOL 180' 20 (DRC-1, concentration 20): 39.4261% | % inhibition apPOL 180' 40 (DRC-1, concentration 40): 45.9927% | % inhibition apPOL 180' 80 (DRC-1, concentration 80): 55.8861% | % inhibition Apo pol 5' (DRC-2, concentration 5): -6% | % inhibition Apo pol 5' (DRC-2, concentration 20): 37% | % inhibition Apol 40' (DRC-2, concentration 5): -6% | % inhibition Apol 40' (DRC-2, concentration 10): 46% | % inhibition Apol 40' (DRC-2, concentration 20): 49% | % inhibition Apol 40' (DRC-2, concentration 40): 53% | % inhibition Apol 40' (DRC-2, concentration 80): 49% | % inhibition ApPOL 90' (DRC-2, concentration 40): 53% | % inhibition apPOL 180' (DRC-2, concentration 20): 37% | % inhibition apPOL 180' (DRC-2, concentration 80): 46% | % inhibition Apo pol 5' 2.5 (DRC-2, read at 5', concentration 2.5): -3.16% | % inhibition Apo pol 5' 5 (DRC-2, read at 5', concentration 5): -6% | % inhibition Apo pol 5' 10 (DRC-2, read at 5', concentration 10): 38% | % inhibition Apo pol 5' 20 (DRC-2, read at 5', concentration 20): 37% | % inhibition Apo pol 5' 40 (DRC-2, read at 5', concentration 40): 34% | % inhibition Apo pol 5' 80 (DRC-2, read at 5', concentration 80): 29% | % inhibition Apol 40' 2.5 (DRC-2, read at 40', concentration 2.5): -3.41% | % inhibition Apol 40' 5 (DRC-2, read at 40', concentration 5): -6% | % inhibition Apol 40' 10 (DRC-2, read at 40', concentration 10): 46% | % inhibition Apol 40' 20 (DRC-2, read at 40', concentration 20): 49% | % inhibition Apol 40' 40 (DRC-2, read at 40', concentration 40): 53% | % inhibition Apol 40' 80 (DRC-2, read at 40', concentration 80): 49% | % inhibition ApPOL 90' 2.5 (DRC-2, read at 90', concentration 2.5): -4% | % inhibition ApPOL 90' 5 (DRC-2, read at 90', concentration 5): -7% | % inhibition ApPOL 90' 10 (DRC-2, read at 90', concentration 10): 43% | % inhibition ApPOL 90' 20 (DRC-2, read at 90', concentration 20): 48% | % inhibition ApPOL 90' 40 (DRC-2, read at 90', concentration 40): 53% | % inhibition ApPOL 90' 80 (DRC-2, read at 90', concentration 80): 51% | % inhibition apPOL 180' 2.5 (DRC-2, concentration 2.5): -8% | % inhibition apPOL 180' 5 (DRC-2, concentration 5): -12% | % inhibition apPOL 180' 10 (DRC-2, concentration 10): 32% | % inhibition apPOL 180' 20 (DRC-2, concentration 20): 37% | % inhibition apPOL 180' 40 (DRC-2, concentration 40): 47% | % inhibition apPOL 180' 80 (DRC-2, concentration 80): 46%

O=c1[nH]c2ccc([N+](=O)[O-])cc2c(-c2ccccc2)c1Sc1nc2ccccc2o1 [KU0067471]
DNA Pol ('DNA Pol' of the 186 hits list (primary screen value)): 28 | DNA Pol (DNA Pol (primary screen value)): 28 | % inhibition Apo pol 10' (DRC-1, concentration 2.5): 11.1433% | % inhibition Apo pol 10' (DRC-1, concentration 5): 11.3784% | % inhibition Apo pol 10' (DRC-1, concentration 10): 23.2925% | % inhibition Apo pol 10' (DRC-1, concentration 20): 44.3997% | % inhibition Apo pol 10' (DRC-1, concentration 40): 71.988% | % inhibition Apo pol 10' (DRC-1, concentration 80): 85.2168% | % inhibition Apol 90' (DRC-1, concentration 2.5): 8.412% | % inhibition Apol 90' (DRC-1, concentration 5): 5.979% | % inhibition Apol 90' (DRC-1, concentration 10): 13.3902% | % inhibition Apol 90' (DRC-1, concentration 20): 30.6503% | % inhibition Apol 90' (DRC-1, concentration 40): 58.6016% | % inhibition Apol 90' (DRC-1, concentration 80): 77.507% | % inhibition apPOL 180' (DRC-1, concentration 2.5): 7.341% | % inhibition apPOL 180' (DRC-1, concentration 5): 3.743% | % inhibition apPOL 180' (DRC-1, concentration 10): 8.363% | % inhibition apPOL 180' (DRC-1, concentration 20): 19.4729% | % inhibition apPOL 180' (DRC-1, concentration 40): 44.0566% | % inhibition apPOL 180' (DRC-1, concentration 80): 66.9195% | % inhibition Apo pol 5' (DRC-2, concentration 2.5): 9% | % inhibition Apo pol 5' (DRC-2, concentration 5): 12% | % inhibition Apo pol 5' (DRC-2, concentration 10): 26% | % inhibition Apo pol 5' (DRC-2, concentration 20): 42% | % inhibition Apo pol 5' (DRC-2, concentration 40): 59% | % inhibition Apo pol 5' (DRC-2, concentration 80): 60% | % inhibition Apol 40' (DRC-2, concentration 2.5): 7% | % inhibition Apol 40' (DRC-2, concentration 5): 9% | % inhibition Apol 40' (DRC-2, concentration 10): 24% | % inhibition Apol 40' (DRC-2, concentration 20): 43% | % inhibition Apol 40' (DRC-2, concentration 40): 65% | % inhibition Apol 40' (DRC-2, concentration 80): 72% | % inhibition ApPOL 90' (DRC-2, concentration 2.5): 5% | % inhibition ApPOL 90' (DRC-2, concentration 5): 7% | % inhibition ApPOL 90' (DRC-2, concentration 10): 20% | % inhibition ApPOL 90' (DRC-2, concentration 20): 40% | % inhibition ApPOL 90' (DRC-2, concentration 40): 65% | % inhibition ApPOL 90' (DRC-2, concentration 80): 73% | % inhibition apPOL 180' (DRC-2, concentration 2.5): -0.297% | % inhibition apPOL 180' (DRC-2, concentration 5): -0.499% | % inhibition apPOL 180' (DRC-2, concentration 10): 10% | % inhibition apPOL 180' (DRC-2, concentration 20): 26% | % inhibition apPOL 180' (DRC-2, concentration 40): 57% | % inhibition apPOL 180' (DRC-2, concentration 80): 72%

CC1(C)CC(=O)C2=C(C1)OC1=C(C(=O)CC(C)(C)C1)C2c1ccc(O)cc1 [KU0194226]
DNA Pol ("DNA Pol" of the 186 hits list (screen value)): 31 | % inhibition Apo pol 10' (DRC-1, concentration 2.5): 1.4755% | % inhibition Apo pol 10' (DRC-1, concentration 5): 6.619% | % inhibition Apo pol 10' (DRC-1, concentration 10): 20.9207% | % inhibition Apo pol 10' (DRC-1, concentration 20): 40.5777% | % inhibition Apo pol 10' (DRC-1, concentration 40): 75.7382% | % inhibition Apo pol 10' (DRC-1, concentration 80): 84.2344% | % inhibition Apol 90' (DRC-1, concentration 2.5): 3.436% | % inhibition Apol 90' (DRC-1, concentration 5): 6.7212% | % inhibition Apol 90' (DRC-1, concentration 10): 20.1854% | % inhibition Apol 90' (DRC-1, concentration 20): 38.6225% | % inhibition Apol 90' (DRC-1, concentration 40): 72.348% | % inhibition Apol 90' (DRC-1, concentration 80): 80.6214% | % inhibition apPOL 180' (DRC-1, concentration 2.5): 2.939% | % inhibition apPOL 180' (DRC-1, concentration 5): 5.25% | % inhibition apPOL 180' (DRC-1, concentration 10): 19.133% | % inhibition apPOL 180' (DRC-1, concentration 20): 35.7891% | % inhibition apPOL 180' (DRC-1, concentration 40): 67.9328% | % inhibition apPOL 180' (DRC-1, concentration 80): 76.0012% | % inhibition Apo pol 5' (DRC-2, concentration 2.5): 2.55% | % inhibition Apo pol 5' (DRC-2, concentration 5): 2.7% | % inhibition Apo pol 5' (DRC-2, concentration 10): 17% | % inhibition Apo pol 5' (DRC-2, concentration 20): 21% | % inhibition Apo pol 5' (DRC-2, concentration 40): 37% | % inhibition Apo pol 5' (DRC-2, concentration 80): 35% | % inhibition Apol 40' (DRC-2, concentration 2.5): 5.61% | % inhibition Apol 40' (DRC-2, concentration 5): -0.353% | % inhibition Apol 40' (DRC-2, concentration 10): 23% | % inhibition Apol 40' (DRC-2, concentration 20): 31% | % inhibition Apol 40' (DRC-2, concentration 40): 52% | % inhibition Apol 40' (DRC-2, concentration 80): 59% | % inhibition ApPOL 90' (DRC-2, concentration 2.5): 6% | % inhibition ApPOL 90' (DRC-2, concentration 5): -4.67% | % inhibition ApPOL 90' (DRC-2, concentration 10): 27% | % inhibition ApPOL 90' (DRC-2, concentration 20): 34% | % inhibition ApPOL 90' (DRC-2, concentration 40): 57% | % inhibition ApPOL 90' (DRC-2, concentration 80): 65% | % inhibition apPOL 180' (DRC-2, concentration 2.5): 5.45% | % inhibition apPOL 180' (DRC-2, concentration 5): -63% | % inhibition apPOL 180' (DRC-2, concentration 10): 27% | % inhibition apPOL 180' (DRC-2, concentration 20): 36% | % inhibition apPOL 180' (DRC-2, concentration 40): 61% | % inhibition apPOL 180' (DRC-2, concentration 80): 70% | DNA Pol (primary screen value, DNA Pol): 31
